How the values were obtained:
B1R of rats = target: T1, B1R of rats (Rattus norvegicus, UniProt P97583); assay: Functional investigation on the bradykinin 1 receptor (B1R), cell-based fluorescent calcium-mobilization assay (FLIPR/Novostar), rat; details: 10 μM test substance; CHO K1 cells stably transfected with rat B1R gene; agonist Des-Arg9-bradykinin at EC80; % inhibition compared with maximum achievable inhibition; read-out: B1R antagonism, rat [10 μM] % inhibition
T1 construct: expressed in transfected cells; host or cells: CHO K1 cells
T1 sequence (P97583 1-337): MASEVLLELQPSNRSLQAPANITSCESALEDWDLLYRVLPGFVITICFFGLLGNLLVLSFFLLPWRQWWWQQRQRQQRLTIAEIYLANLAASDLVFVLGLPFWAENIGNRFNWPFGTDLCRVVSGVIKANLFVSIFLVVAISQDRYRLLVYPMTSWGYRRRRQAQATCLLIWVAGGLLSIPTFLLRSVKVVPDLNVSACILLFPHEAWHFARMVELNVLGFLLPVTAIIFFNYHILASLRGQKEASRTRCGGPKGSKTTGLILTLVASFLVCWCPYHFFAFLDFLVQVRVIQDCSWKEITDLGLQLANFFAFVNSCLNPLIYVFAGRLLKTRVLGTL
Method: (§1) The agonistic or antagonistic action of substances can be quantified on the bradykinin 1 receptor (B1R) of the human and rat species with ectopically expressing cell lines (CHO K1 cells) and with the aid of a Ca^2+-sensitive dyestuff (Fluo-4) in a fluorescent imaging plate reader (FLIPR). The figure in % activation is based on the Ca^2+ signal after addition of Lys-Des-Arg^9-bradykinin (0.5 nM) or Des-Arg^9-bradykinin (100 nM). Antagonists lead to a suppression of the Ca^2+ inflow after addition of the agonist. % inhibition compared with the maximum achievable inhibition is stated.
(§2) The agonistic or antagonistic action of substances can be determined on the bradykinin 1 receptor (B1R) of humans and rats by means of a cell-based flourescent calcium-mobilization assay. According to this assay agonist-induced increase of intracellular free Ca^2+ is quantified by means of a Ca^2+-sensitive dye (Fluo-4 type, Molecular Probes Europe BV, Leiden, Netherlands), in a Fluorescent Imaging Plate Reader (FLIPR, Molecular Devices, Sunnyvale, USA) and/or the Novostar (BMG Labtech GmbH, Offenburg, Germany).
(§3) Chinese hamster ovary cells (CHO K1 cells), which are stably transfected with the human B1R gene (hB1R cells) or with the B1R gene of rats (rB1R cells), are used. For functional investigations these cells are seeded into black 96-well plates with a clear bottom (BD Biosciences, Heidelberg, Germany or Greiner, Frickenhausen, Germany) in a density of 20,000-35,000 cells/well. The cells are incubated overnight in a humidified atmosphere at 37° C. and 5% CO2 in culture medium (hB1R cells: Nutrient Mixture Ham's F12, Gibco Invitrogen GmbH, Karlsruhe, Germany or DMEM, Sigma-Aldrich, Taufkirchen, Germany; rB1R cells: D-MEM/F12, Gibco Invitrogen GmbH, Karlsruhe, Germany) with 10 vol. % FBS (foetal bovine serum, Gibco Invitrogen GmbH, Karlsruhe, Germany).
(§4) On the following day the cells are loaded with the Ca^2+-sensitive dye Fluo-4-AM (Molecular Probes Europe BV, Leiden, Netherlands):
(§5) Method A: The medium of the cells is removed and cell plates are incubated with loading solution, which contains 2.13 μM Fluo-4-AM, 2.5 mM probenecid (Sigma-Aldrich, Taufkirchen, Germany), and 10 mM HEPES (Sigma-Aldrich, Taufkirchen, Germany) in HBSS buffer (Hank's buffered saline solution, Gibco Invitrogen GmbH, Karlsruhe, Germany) for 60 minutes at 37° C. After the plates are washed twice with HBSS buffer, HBSS buffer supplemented 0.1% BSA (bovine serum albumin; Sigma-Aldrich, Taufkirchen, Germany), 5.6 mM glucose and 0.05% gelatine (Merck KGaA, Darmstadt, Germany) is added. Cell plates are incubated for at least 20 minutes in the dark at room temperature before they are used for the Ca^2+ measurement in the FLIPR or Novostar.
(§6) Method B: The plates are washed with buffer A (15 mM HEPES, 80 mM NaCl, 5 mM KCl, 1.2 mM CaCl2, 0.7 mM MgSO4, 2 mg/ml glucose, 2.5 mM probenecid) and subsequently loaded with buffer A containing 2.4 μM Fluo-4-AM and 0.025% pluronic F127 (Sigma-Aldrich, Taufkirchen, Germany) for 60 minutes at 37° C. Cell plates are washed twice with buffer A. Then, buffer A supplemented with 0.05% BSA and 0.05% gelatine is added and cell plates are incubated in the dark at room temperature for at least 20 minutes before measurement in the FLIPR or Novostar is started.
(§7) The Ca^2+-dependent fluorescence is measured both before and after the addition of substances (λex=488 nm, λem=540 nm). For quantification of the effect the highest fluorescence intensity (FC, fluorescence counts) over time is given. The FLIPR protocol consists of two substance additions, done within the instrument while continuously monitoring the Ca^2+-dependent fluorescence at 540 nm. When the Novostar was used, one addition had to be done outside the instrument. Test substances (10 μM) are initially pipetted onto the cells and the intracellular Ca^2+ rise is compared with the control (hB1R: Lys-Des-Arg9-bradykinin>=50 nM; rB1R: Des-Arg9-bradykinin>=1 μM). […]

human B1R = target: T2, human B1R (Homo sapiens, UniProt P46663); assay: Functional investigation on the bradykinin 1 receptor (B1R), cell-based fluorescent calcium-mobilization assay (FLIPR/Novostar), human; details: 10 μM test substance; CHO K1 cells stably transfected with human B1R gene; agonist Lys-Des-Arg9-bradykinin at EC80; % inhibition compared with maximum achievable inhibition; read-out: B1R antagonism, human [10 μM] % inhibition
T2 construct: expressed in transfected cells; host or cells: CHO K1 cells
T2 sequence (P46663 1-353): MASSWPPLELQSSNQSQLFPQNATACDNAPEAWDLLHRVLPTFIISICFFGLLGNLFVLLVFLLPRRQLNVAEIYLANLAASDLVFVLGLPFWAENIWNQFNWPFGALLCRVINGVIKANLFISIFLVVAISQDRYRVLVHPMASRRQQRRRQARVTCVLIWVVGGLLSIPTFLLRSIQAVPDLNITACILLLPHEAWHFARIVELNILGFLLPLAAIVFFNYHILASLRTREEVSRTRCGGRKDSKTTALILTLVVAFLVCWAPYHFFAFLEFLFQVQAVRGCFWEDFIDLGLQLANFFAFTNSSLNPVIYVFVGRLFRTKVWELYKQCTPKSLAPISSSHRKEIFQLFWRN
Method: as §1, §2, §3, §4, §5, §6, §7

| inhibition at 10 µM (B1R of rats) | inhibition at 10 µM (human B1R) | Structure (SMILES) |
| --- | --- | --- |
| 54% | 99% | CN1CCN(C2(CNC(=O)c3ccccc3)CCN(C(=O)COCC3CCc4ccccc4N3S(=O)(=O)c3ccc(Cl)c(Cl)c3)CC2)CC1 (stereo not drawn) [Example 23, N-((1-(2-((1-(3,4-dichlorophenylsulfonyl)-1,2,3,4-tetrahydroquinolin-2-yl)methoxy)acetyl)-4-(4-methylpiperazin-1-yl)piperidin-4-yl)methyl)benzamide] |
| 101% | 103% | COc1cc(C)c(S(=O)(=O)N(C)CCOCC(=O)N2CCC(CNC(=O)c3ccccc3)(N3CCN(C)CC3)CC2)c(C)c1 [Example 24, N-((1-(2-(2-(4-methoxy-N,2,6-trimethylphenylsulfonamido)ethoxy)acetyl)-4-(4-methylpiperazin-1-yl)piperidin-4-yl)methyl)benzamide] |
| 101% | 103% | COc1cc(C)c(S(=O)(=O)N(C)CCOCC(=O)N2CCC(CNC(=O)c3ccccn3)(N3CCN(C)CC3)CC2)c(C)c1 [Example 25, N-((1-(2-(2-(4-methoxy-N,2,6-trimethylphenylsulfonamido)ethoxy)acetyl)-4-(4-methylpiperazin-1-yl)piperidin-4-yl)methyl)picolinamide] |
| 45% | 103% | Cc1cc(S(=O)(=O)N2CCCCC2CCC(=O)N2CCC(CNC(=O)c3ccncc3)(N3CCN(C)CC3)CC2)c(C)cc1Cl (stereo not drawn) [Example 26, N-((1-(3-(1-(4-chloro-2,5-dimethylphenylsulfonyl)piperidin-2-yl)propanoyl)-4-(4-methylpiperazin-1-yl)piperidin-4-yl)methyl)isonicotinamide] |
| 102% | 103% | COc1cc(C)c(S(=O)(=O)N2CCCCC2COCC(=O)N2CCC(CNC(C)=O)(N3CCN(C)CC3)CC2)c(C)c1 (stereo not drawn) [Example 27, N-((1-(2-((1-(4-methoxy-2,6-dimethylphenylsulfonyl)piperidin-2-yl)methoxy)acetyl)-4-(4-methylpiperazin-1-yl)piperidin-4-yl)methyl)acetamide] |
| 102% | 102% | COc1cc(C)c(S(=O)(=O)N2CCCCC2COCC(=O)N2CCC(CNC(=O)c3ccncc3)(N3CCN(C)CC3)CC2)c(C)c1 (stereo not drawn) [Example 28, N-((1-(2-((1-(4-methoxy-2,6-dimethylphenylsulfonyl)piperidin-2-yl)methoxy)acetyl)-4-(4-methylpiperazin-1-yl)piperidin-4-yl)methyl)-isonicotinamide] |
| 33% | 67% | CN1CCN(C2(CNC(=O)c3ccncc3)CCN(C(=O)CC3CCCCN3S(=O)(=O)c3cccc(C(F)(F)F)c3)CC2)CC1 (stereo not drawn) [Example 29, N-((4-(4-methylpiperazin-1-yl)-1-(2-(1-(3-(trifluoromethyl)phenylsulfonyl)-piperidin-2-yl)acetyl)piperidin-4-yl)methyl)isonicotinamide] |
| 80% | 100% | CN1CCN(C2(CNC(=O)c3ccncc3)CCN(C(=O)COCC3CCc4ccccc4N3S(=O)(=O)c3ccc(Cl)c(Cl)c3)CC2)CC1 (stereo not drawn) [Example 30, N-((1-(2-((1-(3,4-dichlorophenylsulfonyl)-1,2,3,4-tetrahydroquinolin-2-yl)methoxy)acetyl)-4-(4-methylpiperazin-1-yl)piperidin-4-yl)methyl)-isonicotinamide] |
| 101% | 103% | COc1cc(C)c(S(=O)(=O)N(C)CCOCC(=O)N2CCC(CNC(C)=O)(N3CCN(C)CC3)CC2)c(C)c1 [Example 31, N-((1-(2-(2-(4-methoxy-N,2,6-trimethylphenylsulfonamido)ethoxy)acetyl)-4-(4-methylpiperazin-1-yl)piperidin-4-yl)methyl)acetamide] |
| 101% | 104% | COc1cc(C)c(S(=O)(=O)N(C)CCOCC(=O)N2CCC(CNC(=O)c3cccnc3)(N3CCN(C)CC3)CC2)c(C)c1 [Example 32, N-((1-(2-(2-(4-methoxy-N,2,6-trimethylphenylsulfonamido)ethoxy)acetyl)-4-(4-methylpiperazin-1-yl)piperidin-4-yl)methyl)nicotinamide] |
| 100% | 103% | Cc1cc(S(=O)(=O)N2CCCCC2CCC(=O)N2CCC(CNC(=O)c3cccnc3)(N3CCN(C)CC3)CC2)c(C)cc1Cl (stereo not drawn) [Example 33, N-((1-(3-(1-(4-chloro-2,5-dimethylphenylsulfonyl)piperidin-2-yl)propanoyl)-4-(4-methylpiperazin-1-yl)piperidin-4-yl)methyl)nicotinamide] |
| 102% | 104% | COc1cc(C)c(S(=O)(=O)N2CCCCC2COCC(=O)N2CCC(CNC(=O)c3cccnc3)(N3CCN(C)CC3)CC2)c(C)c1 (stereo not drawn) [Example 34, N-((1-(2-((1-(4-methoxy-2,6-dimethylphenylsulfonyl)piperidin-2-yl)methoxy)acetyl)-4-(4-methylpiperazin-1-yl)piperidin-4-yl)methyl)nicotinamide] |
| 102% | 89% | CC(=O)NCC1(N2CCN(C)CC2)CCN(C(=O)CC(NS(=O)(=O)c2ccc3ccccc3c2)c2ccccc2)CC1 (stereo not drawn) [Example 35, N-((4-(4-methylpiperazin-1-yl)-1-(3-(naphthalene-2-sulfonamido)-3-phenylpropanoyl)piperidin-4-yl)methyl)acetamide] |
| 101% | 99% | CC(=O)NCC1(N2CCN(c3ccncc3)CC2)CCN(C(=O)CC2CCCCN2S(=O)(=O)c2cccc(C(F)(F)F)c2)CC1 (stereo not drawn) [Example 36, N-((4-(4-(pyridin-4-yl)piperazin-1-yl)-1-(2-(1-(3-(trifluoromethyl)phenyl-sulfonyl)piperidin-2-yl)acetyl)piperidin-4-yl)methyl)acetamide] |
| 71% | 46% | CN1CCN(C2(CNC(=O)c3ccncc3)CCN(C(=O)CC(NS(=O)(=O)c3ccc4ccccc4c3)c3ccccc3)CC2)CC1 (stereo not drawn) [Example 37, N-((4-(4-methylpiperazin-1-yl)-1-(3-(naphthalene-2-sulfonamido)-3-phenylpropanoyl)piperidin-4-yl)methyl)isonicotinamide] |
